Test results from patent publication US12358896B2, “LRRK2 inhibitors and methods of making and using thereof” (DENALI THERAPEUTICS INC., priority 2019, dated 2025).

Legend:
[1] = Metabolic stability in human liver microsomes (Biological Example 2); format: in vitro ADME; conditions: hepatic clearance (CLhep) scaled from human liver microsomes, 1 μM, well-stirred model
Protocol: Metabolic stability of select compounds was evaluated in human liver microsomes (from Corning or XenoTech, LLC) using a 96-well plate assay format. Compounds were incubated at 37° C. at 1 μM final concentration in the microsomal matrix (0.5 mg/mL total protein) in the presence or absence of NADPH cofactor. An NADPH regenerating system, comprised of NADP, MgCl2, isocitric acid, and isocitrate dehydrogenase, was used in the assay. Enzymatic reactions were conducted for 0, 5, 10, 20, 30, or 60 min before termination by addition of acetonitrile containing tolbutamide and labetalol internal standards (100 ng/mL). After shaking for 10 min, plates were subjected to centrifugation (4000 rpm at 4° C.) for 20 min and supernatants mixed 1:3 with HPLC grade water. Samples were analyzed by LC-MS/MS using appropriate MRM transitions for each analyte and internal standard (IS). Analyte/IS peak area ratios were used to determine percent compound remaining at each time point. Intrinsic clearance (Clint; expressed as mL·min^−1·mg^−1) was calculated from the first order elimination constant (k, min^−1) of test article decay and the volume of the incubation. These values were scaled to intrinsic organ clearance (Clint) using human specific scaling factors (48.8 mg microsomal protein per g liver; 25.7 g liver per kg body weight). Organ Clint was subsequently converted to hepatic clearance, HLM, (CLhep, mL·min-1·kg-1) using the well-stirred model of hepatic elimination, where Qh is human hepatic blood flow (20.7 mL·min-1·kg-1).
CLhep is the projected human clearance in the liver based on the above in vitro assay. A lower value is indicative of less compound being removed by the liver.

MDR1 (P-glycoprotein) = target: T1, MDR1 (P-glycoprotein) (Homo sapiens, UniProt P08183); experiment: MDR1-MDCK permeability / efflux (Biological Example 3); format: in vitro ADME; conditions: MDR1-MDCK cells, pH 7.4; for efflux ratio at 1 μM: dog
T1 construct: expressed in transfected cells; host or cells: MDR1-MDCK cells
Protocol: The blood brain barrier (BBB) separates circulating blood from the extracellular fluid of the central nervous system (CNS). The passive membrane permeability (Papp) and MDR1 (P-glycoprotein) substrate efflux potential are determined using the MDR1-MDCK cell line as an in vitro model of the effective permeability of a compound through the BBB. A bidirectional assay was conducted in pre-plated MDR1-MDCK cells using a 12 or 96-well plate in the absence or presence of MDR1 inhibitor (GF120918 or Valspodar). Assays were run in duplicate in transport buffer (HBSS, pH 7.4) for 90 or 120 min (minutes) at 37° C., using a test article concentration of 1 μM. Monolayer integrity was confirmed using Lucifer yellow, and appropriate positive controls for passive permeability and MDR1 transport were included in each experiment. Following incubation, samples from donor and receiver compartments are removed and quenched with acetonitrile containing an appropriate internal standard (IS). Protein was precipitated by centrifugation for 10 min at 3220 g, and supernatants diluted in ultra-pure water (if necessary) prior to analysis by LC-MS/MS using appropriate MRM transitions for analytes and IS. Papp (apparent permeability expressed in cm/sec [centimeter/second]) values were calculated according to the following equation:
[formula] where VR is the solution volume in the receiver chamber (apical or basolateral side), Area is the surface area for the insert membrane), Time is incubation time expressed in seconds, CR is the peak area ratio (analyte/IS) in the receiver chamber, CA is the average of the initial and final concentrations in the donor chamber, and Co is the initial peak area ratio in the donor chamber. Papp was determined in both the apical to basolateral (A→B) and basolateral to apical (B→A) directions.
Monolayer efflux ratios (ER) were derived using the following equation: […]
Compounds with an MDR1-MDCK efflux ratio above 20 are not expected to cross the blood brain barrier.

T1 sequence (P08183 whole entry): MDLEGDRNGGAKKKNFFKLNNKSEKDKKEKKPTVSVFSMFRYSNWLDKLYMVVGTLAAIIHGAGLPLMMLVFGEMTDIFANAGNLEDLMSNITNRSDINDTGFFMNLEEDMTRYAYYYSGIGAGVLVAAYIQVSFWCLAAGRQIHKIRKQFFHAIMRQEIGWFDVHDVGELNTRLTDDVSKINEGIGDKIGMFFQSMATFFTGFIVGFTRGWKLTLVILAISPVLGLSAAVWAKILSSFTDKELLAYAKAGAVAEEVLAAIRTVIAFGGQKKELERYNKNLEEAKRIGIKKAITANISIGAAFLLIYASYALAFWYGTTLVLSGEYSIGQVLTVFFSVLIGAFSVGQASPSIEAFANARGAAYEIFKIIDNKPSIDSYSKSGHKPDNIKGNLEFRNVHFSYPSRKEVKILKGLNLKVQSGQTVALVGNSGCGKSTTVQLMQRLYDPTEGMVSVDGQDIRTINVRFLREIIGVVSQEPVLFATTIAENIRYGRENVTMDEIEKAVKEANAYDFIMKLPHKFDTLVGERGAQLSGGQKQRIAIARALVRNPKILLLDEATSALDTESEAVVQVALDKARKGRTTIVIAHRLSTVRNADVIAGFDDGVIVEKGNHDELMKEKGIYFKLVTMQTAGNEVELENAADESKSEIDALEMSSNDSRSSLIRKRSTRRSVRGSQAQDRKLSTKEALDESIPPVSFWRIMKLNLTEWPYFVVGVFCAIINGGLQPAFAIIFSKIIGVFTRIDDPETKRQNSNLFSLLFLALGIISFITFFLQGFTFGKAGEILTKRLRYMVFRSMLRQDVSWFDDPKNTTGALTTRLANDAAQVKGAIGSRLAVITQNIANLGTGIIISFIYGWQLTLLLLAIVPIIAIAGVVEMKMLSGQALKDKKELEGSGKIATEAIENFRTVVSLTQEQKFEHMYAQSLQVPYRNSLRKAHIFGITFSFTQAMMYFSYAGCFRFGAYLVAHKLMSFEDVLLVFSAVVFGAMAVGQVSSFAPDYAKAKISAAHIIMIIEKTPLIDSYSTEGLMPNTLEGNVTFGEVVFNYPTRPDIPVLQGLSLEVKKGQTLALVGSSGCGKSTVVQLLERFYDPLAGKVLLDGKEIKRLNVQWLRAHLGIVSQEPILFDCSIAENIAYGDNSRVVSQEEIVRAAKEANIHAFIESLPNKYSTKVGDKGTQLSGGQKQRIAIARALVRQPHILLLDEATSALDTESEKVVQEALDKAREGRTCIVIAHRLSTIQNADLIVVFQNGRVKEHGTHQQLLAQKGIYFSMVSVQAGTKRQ

Row | Structure (SMILES) | HLM Avg [1] | efflux ratio at 1 μM (MDR1 (P-glycoprotein)) | MDCK-MDR1 Efflux Avg (MDR1 (P-glycoprotein); efflux ratio, 1 μM)
1 | CCNc1nc(Nc2cn([C@H]3C[C@H]3C(N)=O)nc2C2CC2)ncc1C(F)(F)F (single isomer, unassigned) [Example 7, (1,2-cis)-2-(3-cyclopropyl-4-((4-(ethylamino)-5-(trifluoromethyl)pyrimidin-2-yl)amino)-1H-pyrazol-1-yl)cyclopropanecarboxamide] | 3.6 mL/min/kg | 110 | 110
2 | CCNc1nc(Nc2cc([C@H]3C[C@H]3C(N)=O)nn2C2CC2)ncc1C(F)(F)F [Comparative Example A, reference compound] | 2.6 mL/min/kg | 144 | –
